Where two headings read alike, the source gives them in different places. Marks after values point to notes of the source that are not given here.
Tests used:
[1] = Hydrolytic stability assay; assay type: physicochemical; settings: for half-life: 20 mM mixed acetate, borate and phosphate buffer; for half-life / Hydrolytic Stability (t1/2, hours) pH 7: 40° C.; for % remaining at last assessment time: pH 7, 40° C.
Method: The objective of the hydrolytic stability assays is to determine the chemical stability of individual test compounds according to the invention in a controlled and reproducible environment, allowing a comparison of compound in vitro stability under aqueous conditions at pH 7 and 9. Prior to conducting the individual hydrolytic stability assays, stock solutions containing 1000 ppm of each test compound (ie, compounds (IA-1a), (IA-1b), (IA-17a), (IA-17b), P1 and P2) were prepared in methanol. The reagents used in the assays were prepared as follows. A 20 mM buffer solution was prepared from a stock solution of 20 mM mixed acetate, borate and phosphate buffer and the pH adjusted to 7 or 9 as required. Test solutions were prepared in LC vials for each test compound in the following manner: Mobile Phase Control: Mobile phase (1 mL)+compound stock solution (2 to 40 μL). Hydrolytic Stability: Buffer (1 mL)+compound stock solution (2 to 40 μL). The mobile phase and buffer were initially dispensed into separate glass LC vials, placed into an autosampler complete with thermostat set at 40° C. and allowed to equilibrate for 30 minutes prior to starting the individual assays. Reactions were initiated by addition of the compound solution and monitored through a series of repeat injections made directly from the vial into the HPLC system at regular time intervals. Initial and subsequent measurements of peak area attributable to the test compound were used to fit exponential half-lives and calculate first-order rate constants. […] Consequently, the percentage of compound remaining was recorded at the last assessment time.

Soil stability assay = assay type: physicochemical; settings: Stein soil:sand 1:1, 0.3 μg/g soil, dark, 20° C.
Description: It is highly desirable that agrochemicals applied to soil in order to deliver a beneficial biological effect can exist in the soil for a prolonged period of time with minimal degradation. However, a biologically active agrochemical compound may undergo chemical transformation in soil, leading to decreased levels of activity and a decrease in a desired biological effect. Simple laboratory degradation studies can be used to evaluate the disappearance due to biotic and abiotic processes of a compound in soil. The time taken for a compound to degrade in soil allows the estimation of their half-life (t1/2), which corresponds to the time in which 50% of the compound under evaluation is degraded in soil. […] Stock standard solutions were prepared by dissolving 1 mg of each test compound (ie, compounds (IA-1a and IA-1b), (IA-17a and IA-17b), P1 and P2) in acetonitrile. The stock standard solutions were stored at 6° C. Working standard solutions were then obtained by a series of dilutions of the stock standard solutions. A treatment solution of 100 μg/mL concentration for each test compound was prepared in methanol. Soil samples used for this soil stability assay were collected at the Syngenta Research Centre location in Stein (Switzerland). The soil was classified as clay loam. Certain physical properties of the soil are described in Table 2. 2 mm sieved Stein soil was mixed with sand at ratio 1:1 prior to starting the laboratory soil degradation experiment. 10 g of the sand-soil mix (air-dried basis) was weighed into 50 ml Corning® polypropylene centrifuge tubes and soil moisture was adjusted at 45% of the field capacity. Chemical application was performed by applying 30 μl of a 100 μg/mL solution of each test compound to 10 g soil vessel corresponding to a final concentration of 0.3 μg test compound per gram of soil. Three replicates were considered for each test compound. Treated tubes were incubated in the dark at 20° C.±0.5. For the estimation of half-life, different sampling times were considered. Based on initial studies, a fast degradation was expected for compounds P1, P2 and IA-17 therefore the following short sampling times of 0, 3, 6, 9 and 24 hours after application were considered. Conversely for compounds IA-1, longer sampling times of 0, 6, 24, 48, 72, 168 and 240 hours after application were used. At each sampling time, samples were removed and stored at −80° C. until analysis. The half-lives were calculated by an exponential regression analysis plotting the percentage of recovered compound in soil against the time. Compounds P1, P2, (IA-1) and (IA-17) were extracted from soil by using 30 mL of Acetonitrile (CHROMASOLV® gradient grade, for HPLC, >99.9%, SIGMA-ALDRICH). The mixture was shaken for 3 hours at room temperature by using a vertical rotary shaker. After centrifugation at 3000 rpm for 5 minutes, an aliquot of the supernatant was collected and analyzed via UPLC-MS (Waters Acquity UPLC-MS PDA-Detection: 254 nm- and SQD-Zspray ESI, APCI, ESCi®-; Waters Acquity UPLC Column HSS T3 2.1×30 mm-1.8 μm; Gradient mobile phase with Solvent A: Water/MeOH (9:1)+ 0.1% Formic Acid and Solvent B: Acetonitrile+ 0.1% Formic Acid; flow of 0.75 ml/min).

NK Falkone corn seeds = assay: Corn seed germination under cold stress; assay type: in vivo; settings: 250 μM, cold stress 15° C., control T50 = 110 hours; negative = faster germination
Method: Corn seed germination studies were undertaken on the compounds of the present invention. In particular, the effect of the compounds of Formulae (IA-1a) and (IA-1b) on the germination of NK Falkone corn seeds (Syngenta) under cold stress was evaluated as follows.
NK Falkone corn seeds were sorted by size using 2 sieves, one excluding very big seeds and the other with round holes of 8 to 9 mm diameter. The seeds retained by the latter sieve were used for the germination test.
The corn seeds were placed in 24 well plates (each plate is considered as one experimental unit or replicate). Germination is initiated by the addition of 250 μl of distilled water containing 0.5% DMSO per well as a means for compound solubilization. 8 replicates (ie, 8 plates) were used for each treatment characterization. Plates were sealed using seal foil (Polyolefin Art. Nr. 900320) from HJ-BIOANALYTIK. All plates were placed horizontally on trolleys in a climatic chamber at 15° C. or 23° C. in complete darkness. The experiment was laid out in a completely randomized design in a climatic chamber with 75% relative humidity. Foils were pierced, one hole per well using a syringe after 72 hours for experiments performed at 15° C. and after 24 hours for experiments performed at 23° C.
Germination was followed over time by taking photographs at different time points. Image analysis is done automatically with a macro developed using the Image J software. A dynamic analysis of germination is carried out by fitting a logistic curve to the relationship between % germination and time for each plate (T50 parameter).
T50 is the time needed for half the seed population to be germinated. A negative value of T50 represents a faster germination rate. The mean of T50 parameters is calculated for the 8 replicates and the kinetic parameter is determined for each germination curve. Data in bold indicate germination enhancing statistically significant differences between treated seeds and control (empty vehicle treated) T50 values (P<0.05) as outlined in Table 4.

[2] = pH 7, 20 mM acetate/borate/phosphate buffer, read-out: Hydrolytic Stability (t1/2, hours) pH 7 (converted)
[3] = pH 9, 20 mM acetate/borate/phosphate buffer, read-out: Hydrolytic Stability (t1/2, hours) pH 9 (converted)
[4] = pH 7, 20 mM acetate/borate/phosphate buffer

Row | SMILES | half-life [1, 2] | half-life [1, 3] | % remaining at last assessment time ([1]; at 21.5 hours) | Soil Stability (t1/2, hours) (Soil stability assay) | T50 (% vs control) (NK Falkone corn seeds) | Hydrolytic Stability (t1/2, hours) pH 7 [1, 4] | Hydrolytic Stability (t1/2, hours) pH 7 ([1]; pH 7, 20 mM acetate/borate/phosphate buffer, listed as IA-17a) | % remaining at last assessment time ([1]; at 17.3 hours) | % remaining at last assessment time ([1]; at 15.8 hours) | Hydrolytic Stability (t1/2, hours) pH 7 ([1]; pH 7, 20 mM acetate/borate/phosphate buffer, listed as IA-1a) | % remaining at last assessment time ([1]; at 17.9 hours) | Hydrolytic Stability (t1/2, hours) pH 7 ([1]; pH 7, 20 mM acetate/borate/phosphate buffer, listed as IA-1b) | % remaining at last assessment time ([1]; at 21.1 hours) | Hydrolytic Stability (t1/2, hours) pH 7 ([1]; pH 7, 20 mM acetate/borate/phosphate buffer, listed as IA-17b) | % remaining at last assessment time ([1]; at 16.8 hours)
1 | CC1=C[C@H](O/C=C2/C(=O)N[C@@H]3c4ccccc4C[C@H]23)OC1=O [Compound P1, reference compound] | 25.6 h | 0.4 h | ^f55.4% remaining at 21.5 hours | 4 h | −4.20 % vs control |  |  |  |  |  |  |  |  |  | 
2 | COC1=C(C)C(=O)O[C@H]1O/C=C1/C(=O)N[C@@H]2c3ccccc3C[C@H]12 [(IA-17a), (3E,3aR,8bS)-3-[[(2R)-3-methoxy-4-methyl-5-oxo-2H-furan-2-yl]oxymethylene]-1,3a,4,8b-tetrahydroindeno[1,2-b]pyrrol-2-one] |  | 16.6 h |  | 340 h | −6.50 % vs control | stable^d | insufficient loss was observed | ^d99.1% remaining at 17.3 hours |  |  |  |  |  |  | 
3 | CC1=C[C@@H](O/C=C2/C(=O)N[C@@H]3c4ccccc4C[C@H]23)OC1=O [Compound P2, reference compound] | 79.5 h | 0.3 h |  | 4.2 h | −2.30 % vs control |  |  |  | ^e86.9% remaining at 15.8 hours |  |  |  |  |  | 
4 | CC1=C(C)[C@H](O/C=C2/C(=O)N[C@@H]3c4ccccc4C[C@H]23)OC1=O [(IA-1a), (3E,3aR,8bS)-3-[[(2R)-3,4-dimethyl-5-oxo-2H-furan-2-yl]oxymethylene]-1,3a,4,8b-tetrahydroindeno[1,2-b]pyrrol-2-one] |  | 2.4 h |  | 87 h | −6.10^c % vs control | stable^b |  |  |  | insufficient loss was observed | ^b91.8% remaining at 17.9 hours |  |  |  | 
5 | CC1=C(C)[C@@H](O/C=C2/C(=O)N[C@@H]3c4ccccc4C[C@H]23)OC1=O [(IA-1b), (3E,3aR,8bS)-3-[[(2S)-3,4-dimethyl-5-oxo-2H-furan-2-yl]oxymethylene]-1,3a,4,8b-tetrahydroindeno[1,2-b]pyrrol-2-one] |  | 2.1 h |  | 53 h | −7.60 % vs control | stable^a |  |  |  |  |  | insufficient loss was observed | ^a90.9% remaining at 21.1 hours |  | 
6 | COC1=C(C)C(=O)O[C@@H]1O/C=C1/C(=O)N[C@@H]2c3ccccc3C[C@H]12 [(IA-17b), (3E,3aR,8bS)-3-[[(2S)-3-methoxy-4-methyl-5-oxo-2H-furan-2-yl]oxymethylene]-1,3a,4,8b-tetrahydroindeno[1,2-b]pyrrol-2-one] |  | 19 h |  | 312 h | −5.10 % vs control | stable^c |  |  |  |  |  |  |  | insufficient loss was observed | ^c99.0% remaining at 16.8 hours

From patent US20180168154A1, “PLANT GROWTH REGULATING COMPOUNDS” (Syngenta Participations AG, priority 2015, published 2018)
